Results on 23 compounds are retold here after patent publication US20230265103A1 (TME Therapeutics LLC, priority 2021, published 2023).

Molecules are shown by their SMILES.

Data set [1] concerns Ebola virus (Mayinga strain) glycoprotein (rVSV-EBOV-GP). As to the kind of experiment: microbe, parasite or virus in culture. The format is cell-based.
Data set [2] concerns SARS-CoV-2 (Delta strain B.1.617). As to the kind of experiment: SARS-CoV-2 Delta antiviral assay (inhibition of CPE, neutral red). It is filed as cell-based. The conditions noted are these: SARS-COV2 (Delta).
The test system of data set [3] is JJN3 (multiple myeloma) cells. As to the kind of experiment: Anti-proliferative activity, JJN3 (CellTiter-Glo). The conditions noted are these: Homo sapiens, JJN-3, 144 h.
Data set [4] in a line: in vitro. The conditions noted are these: African green monkey.
Data set [5] has as its system SARS-CoV-2 (strain USA-WA1/2020). Nature of the data set: SARS-CoV-2 antiviral assay (inhibition of CPE, neutral red). The format is cell-based. The conditions noted are these: SARS-COV2; for EC50: Severe acute respiratory syndrome coronavirus 2, inhibition of CPE by 50%.
The subject of data set [6] is influenza A strain California/07/09 (H1N1)pdm09. Nature of the data set: Influenza A antiviral assay (inhibition of CPE, neutral red). The format is cell-based. The following applies: for EC50: Influenza A virus, H1N1.
The target of data set [7] is T1, PIKFYVE (Homo sapiens, UniProt Q9Y2I7).
T1 construct: purchased Eurofins (KINOMEscan); host or cells: E. coli BL21-derived (T7 phage display) or HEK-293
As to the kind of experiment: KINOMEscan Kinase Assay (Eurofins), PIKFYVE inhibitory activity. It is filed as binding. The following applies: for IC50: KINOMEscan; for inhibition at 0.003 µM: @ 3 nM; for inhibition at 0.005 µM: @ 5 nM.

Data set [8] has as its system Marburg virus (Angola strain) glycoprotein (rVSV-MARV-GP). Nature of the data set: organism not typed. The format is cell-based.
The test system of data set [9] is HuT-78 (T cell lymphoma) cells. Nature of the data set: Anti-proliferative activity, HuT-78 (CellTiter-Glo). The conditions noted are these: Homo sapiens, HuT78, 144 h. (In ATP-based viability assays light output follows the ATP content of the culture.)
Data set [10] can be described thus: in vitro. The conditions noted are these: dog.

T1 sequence (Q9Y2I7 whole entry): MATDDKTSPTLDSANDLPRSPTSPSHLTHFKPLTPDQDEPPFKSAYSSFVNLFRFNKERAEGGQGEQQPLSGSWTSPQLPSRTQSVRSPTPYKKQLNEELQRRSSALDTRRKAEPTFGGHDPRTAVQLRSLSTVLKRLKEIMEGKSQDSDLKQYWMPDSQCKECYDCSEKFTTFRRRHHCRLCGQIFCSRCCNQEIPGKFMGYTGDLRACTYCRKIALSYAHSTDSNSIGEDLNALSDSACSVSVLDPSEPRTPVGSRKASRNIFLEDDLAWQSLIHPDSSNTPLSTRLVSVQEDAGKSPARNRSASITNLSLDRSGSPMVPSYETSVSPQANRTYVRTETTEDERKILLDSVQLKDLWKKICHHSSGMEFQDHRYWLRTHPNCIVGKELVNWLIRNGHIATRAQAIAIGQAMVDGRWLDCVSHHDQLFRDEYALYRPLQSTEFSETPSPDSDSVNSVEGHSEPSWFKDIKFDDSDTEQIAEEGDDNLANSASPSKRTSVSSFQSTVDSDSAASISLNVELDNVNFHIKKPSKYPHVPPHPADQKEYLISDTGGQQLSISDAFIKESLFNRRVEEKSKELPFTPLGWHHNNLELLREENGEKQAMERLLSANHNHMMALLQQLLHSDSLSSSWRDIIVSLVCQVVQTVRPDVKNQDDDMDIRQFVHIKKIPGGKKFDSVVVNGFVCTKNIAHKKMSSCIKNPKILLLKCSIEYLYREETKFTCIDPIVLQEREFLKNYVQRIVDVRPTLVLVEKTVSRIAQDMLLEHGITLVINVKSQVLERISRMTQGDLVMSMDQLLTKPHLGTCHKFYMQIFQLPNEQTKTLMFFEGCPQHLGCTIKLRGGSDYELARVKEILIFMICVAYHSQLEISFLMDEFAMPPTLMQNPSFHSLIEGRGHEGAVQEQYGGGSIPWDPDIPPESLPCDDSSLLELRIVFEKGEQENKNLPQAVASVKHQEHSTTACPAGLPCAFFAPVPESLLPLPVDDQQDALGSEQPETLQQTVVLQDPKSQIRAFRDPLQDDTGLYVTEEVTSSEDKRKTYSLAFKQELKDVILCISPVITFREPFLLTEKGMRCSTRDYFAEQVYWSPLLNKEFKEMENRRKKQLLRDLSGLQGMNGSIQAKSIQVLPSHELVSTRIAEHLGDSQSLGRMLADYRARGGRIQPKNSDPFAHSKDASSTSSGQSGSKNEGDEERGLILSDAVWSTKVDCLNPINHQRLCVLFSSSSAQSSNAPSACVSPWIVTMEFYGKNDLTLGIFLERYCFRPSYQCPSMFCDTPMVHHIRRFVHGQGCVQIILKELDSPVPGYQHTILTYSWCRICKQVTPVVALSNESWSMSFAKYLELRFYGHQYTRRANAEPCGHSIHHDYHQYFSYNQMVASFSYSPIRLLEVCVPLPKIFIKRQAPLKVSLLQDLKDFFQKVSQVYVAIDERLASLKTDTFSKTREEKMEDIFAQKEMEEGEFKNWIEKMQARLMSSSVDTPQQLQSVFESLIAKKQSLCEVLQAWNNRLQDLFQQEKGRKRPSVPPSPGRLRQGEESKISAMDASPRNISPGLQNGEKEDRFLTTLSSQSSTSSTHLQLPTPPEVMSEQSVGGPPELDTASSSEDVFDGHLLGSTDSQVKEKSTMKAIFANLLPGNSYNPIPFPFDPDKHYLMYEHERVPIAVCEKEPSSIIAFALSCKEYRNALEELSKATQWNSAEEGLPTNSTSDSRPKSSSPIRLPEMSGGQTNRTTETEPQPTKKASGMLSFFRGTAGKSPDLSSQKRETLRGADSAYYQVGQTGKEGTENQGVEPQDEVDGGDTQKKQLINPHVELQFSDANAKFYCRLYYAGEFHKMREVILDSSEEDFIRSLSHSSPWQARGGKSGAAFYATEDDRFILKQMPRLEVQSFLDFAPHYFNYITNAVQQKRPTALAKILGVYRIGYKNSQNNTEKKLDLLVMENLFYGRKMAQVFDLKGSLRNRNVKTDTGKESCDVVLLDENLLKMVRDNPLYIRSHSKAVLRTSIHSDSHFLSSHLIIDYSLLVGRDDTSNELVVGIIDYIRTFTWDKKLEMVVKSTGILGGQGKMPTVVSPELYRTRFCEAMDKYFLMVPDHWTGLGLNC

A word on the EC50: it is the concentration giving half of the maximal effect. Usually IC50 stands for the concentration that inhibits the measured activity by half. As to `Cc1cccc(-c2ccn(-c3nc(N4CCOCC4)c4sc(CN5CCN(S(C)(=O)=O)CC5)cc4n3)n2)c1` [Ex. 2, 4-(6-((4-(methylsulfonyl)piperazin-1-yl)methyl)-2-(3-(m-tolyl)-1H-pyrazol-1-yl)thieno[3,2-d]pyrimidin-4-yl)morpholine], the “Selectivity Index” value in [1] is listed as greater than 6000; in data set [2] (CC50 divided by EC50) it was greater than 1000; in data set [5] (CC50 divided by EC50), greater than 150; in data set [6] (Influenza A, CC50 divided by EC50), greater than 150; in data set [8], greater than 15000. Besides, the EC50 is less than 0.5 µM in data set [1] (Zaire ebolavirus, Vero); less than 3 µM in data set [2] (Severe acute respiratory syndrome coronavirus 2); less than 0.05 µM in data set [3]; less than 1 µM in [5]; less than 1 µM in [6]; less than 0.2 µM in [8] (Vero). Moreover, in data set [9], the EC50 was less than 0.25 µM. In [4], this compound registered a CC50 greater than 3000 µM. In [7], the IC50 was less than 0.001 µM.

Take `COC1(c2sc3c(N4CCOCC4)nc(-n4ccc(-c5cccc(C)c5)n4)nc3c2C)COC1` [Ex. 65, 4-(6-(3-methoxyoxetan-3-yl)-7-methyl-2-(3-(m-tolyl)-1H-pyrazol-1-yl)thieno[3,2-d]pyrimidin-4-yl)morpholine]: the IC50 in [7] lay within 0.001 to 0.01 µM.

As to `Cc1cccc(-c2ccn(-c3cc(N4CCOCC4)c4sc(CN5CCOCC5)cc4n3)n2)c1` [Ex. 66, 4-((7-morpholino-5-(3-(m-tolyl)-1H-pyrazol-1-yl)thieno[3,2-b]pyridin-2-yl)methyl)morpholine], the IC50 in data set [7] was less than 0.001 µM.

In data set [7], `Cc1cccc(-c2ccn(-c3cc(N4CCOCC4)c4sc(CN5CCN(C)CC5)cc4n3)n2)c1` [Ex. 67] gave an IC50 of less than 0.001 µM.

In the case of `Cc1cccc(-c2ccn(-c3cc(N4CCOCC4)c4sc(CN5CCN(S(C)(=O)=O)CC5)cc4n3)n2)c1` [Ex. 68, 4-(2-((4-(methylsulfonyl)piperazin-1-yl)methyl)-5-(3-(m-tolyl)-1H-pyrazol-1-yl)thieno[3,2-b]pyridin-7-yl)morpholine], in [7], the IC50 is less than 0.001 µM.

On to `Cc1cccc(-c2ccn(-c3cc(N4CCOCC4)c4sc(CN5CCC(N(C)C)C(F)C5)cc4n3)n2)c1` (centres unmarked) [Ex. 69, 3-fluoro-N,N-dimethyl-1-((7-morpholino-5-(3-(m-tolyl)-1H-pyrazol-1-yl)thieno[3,2-b]pyridin-2-yl)methyl)piperidin-4-amine], for which the IC50 in data set [7] was less than 0.001 µM.

In data set [7], `Cc1cccc(-c2ccn(-c3cc(N4CCOCC4)c4sc(CN5CCC(N6CCC6)C(F)C5)cc4n3)n2)c1` (centres unmarked) [Ex. 70, 4-(2-((4-(azetidin-1-yl)-3-fluoropiperidin-1-yl)methyl)-5-(3-(m-tolyl)-1H-pyrazol-1-yl)thieno[3,2-b]pyridin-7-yl)morpholine] gave an IC50 of less than 0.001 µM.

In the case of `Cc1cccc(-c2ccn(-c3nc(N4CCCOCC4)c4sc(CN5CCN(S(C)(=O)=O)CC5)cc4n3)n2)c1` [Ex. 71, 4-(6-((4-(methylsulfonyl)piperazin-1-yl)methyl)-2-(3-(m-tolyl)-1H-pyrazol-1-yl)thieno[3,2-d]pyrimidin-4-yl)-1,4-oxazepane], in [7], the IC50 was 0.01 to 0.1 µM.

Consider `Cc1cccc(-c2ccn(-c3cc(N4CCOCC4)c4nc(CN5CCN(S(C)(=O)=O)CC5)n(C)c4n3)n2)c1` [Ex. 72, 4-(3-methyl-2-((4-(methylsulfonyl)piperazin-1-yl)methyl)-5-(3-(m-tolyl)-1H-pyrazol-1-yl)-3H-imidazo[4,5-b]pyridin-7-yl)morpholine], for which, in [7], the IC50 is less than 0.001 µM.

Consider `Cc1cccc(-c2ccn(-c3nc(N4CC5CC4CO5)c4sc(CN5CCN(S(C)(=O)=O)CC5)cc4n3)n2)c1` (centres unmarked) [Ex. 73, 5-(6-((4-(methylsulfonyl)piperazin-1-yl)methyl)-2-(3-(m-tolyl)-1H-pyrazol-1-yl)thieno[3,2-d]pyrimidin-4-yl)-2-oxa-5-azabicyclo[2.2.1]heptane], for which the IC50 in data set [7] fell in the range of 0.01 to 0.1 µM.

The compound `Cc1cccc(-c2ccn(-c3cc(N4CCOCC4)c4nc(CN5CCOCC5)n(C)c4n3)n2)c1` [Ex. 74, 4-(3-methyl-2-(morpholinomethyl)-5-(3-(m-tolyl)-1H-pyrazol-1-yl)-3H-imidazo[4,5-b]pyridin-7-yl)morpholine] showed a half-inhibitory concentration (IC50) in [7] of less than 0.001 µM.

Take `Cc1cccc(-c2ccn(-c3cc(N4CCOCC4)c4nc(CO)n(C)c4n3)n2)c1` [Ex. 75, (3-methyl-7-morpholino-5-(3-(m-tolyl)-11H-pyrazol-1-yl)-3H-imidazo[4,5-b]pyridin-2-yl)methanol]: the IC50 in [7] was 0.001 to 0.01 µM.

Regarding `Cc1cccc(-c2ccn(-c3cc(N4CCOCC4)c4nc(CN5CCC(C(C)(C)O)CC5)n(C)c4n3)n2)c1` [Ex. 76, 2-(1-((3-methyl-7-morpholino-5-(3-(m-tolyl)-1H-pyrazol-1-yl)-3H-imidazo[4,5-b]pyridin-2-yl)methyl)piperidin-4-yl)propan-2-ol], the IC50 in data set [7] was less than 0.001 µM.

By inhibition is commonly meant the share of the control response that was lost under treatment. `Cc1cccc(-c2ccn(-c3nc(N4CCC(=O)C4)c4sc(CN5CCN(S(C)(=O)=O)CC5)cc4n3)n2)c1` [Ex. 129, 1-(6-((4-(methylsulfonyl)piperazin-1-yl)methyl)-2-(3-(m-tolyl)-1H-pyrazol-1-yl)thieno[3,2-d]pyrimidin-4-yl)pyrrolidin-3-one] gave an inhibition at 0.03 µM in data set [7] (@ 30 nM) of 92%.

Turning to `Cc1cccc(-c2ccn(-c3nc(N4CCOCC4)c4sc(N5CCN(S(C)(=O)=O)CC5)cc4n3)n2)c1` [Ex. 165, 4-(6-(4-(methylsulfonyl)piperazin-1-yl)-2-(3-(m-tolyl)-1H-pyrazol-1-yl)thieno[3,2-d]pyrimidin-4-yl)morpholine], at 0.003 µM the inhibition in data set [7] was 22%.

As to `Cc1cccc(-c2ccn(-c3cc(N4CCOCC4)c4sc(CN5CCOCC5)c(C)c4n3)n2)c1` [Ex. 167, 4-(3-Methyl-2-(morpholinomethyl)-5-(3-(m-tolyl)-1H-pyrazol-1-yl)thieno[3,2-b]pyridin-7-yl)morpholine], the inhibition at 0.003 µM in [7] stood at 0%.

On to `Cc1cccc(-c2ccn(-c3cc(N4CCOCC4)c4sc(CN5CCC(C(C)(C)O)CC5)c(C)c4n3)n2)c1` [Ex. 168, 2-(1-((3-Methyl-7-morpholino-5-(3-(m-tolyl)-1H-pyrazol-1-yl)thieno[3,2-b]pyridin-2-yl)methyl)piperidin-4-yl)propan-2-ol], for which, in data set [7], the inhibition at 0.003 µM came to 23%.

In data set [7], `Brc1ccn(-c2cc(N3CCOCC3)c3sc(CN4CCOCC4)cc3n2)n1` [Ex. 173, 4-(5-(3-Bromo-1H-pyrazol-1-yl)-2-(morpholinomethyl)thieno[3,2-b]pyridin-7-yl)morpholine] gave an inhibition at 0.005 µM of 8%.

As for `CC(=O)c1cccc(-c2ccn(-c3cc(N4CCOCC4)c4sc(CN5CCOCC5)cc4n3)n2)c1` [Ex. 184, 1-(3-(1-(7-Morpholino-2-(morpholinomethyl)thieno[3,2-b]pyridin-5-yl)-1H-pyrazol-3-yl)phenyl)ethan-1-one], the inhibition at 0.005 µM in data set [7] was 5%.

In data set [7], `Cc1cc(-c2ccn(-c3cc(N4CCOCC4)c4sc(CN5CCOCC5)cc4n3)n2)ccn1` [Ex. 190, 4-(5-(3-(2-Methylpyridin-4-yl)-1H-pyrazol-1-yl)-2-(morpholinomethyl)thieno[3,2-b]pyridin-7-yl) morpholine] yielded an inhibition at 0.005 µM of 5%.

As to `CC(O)c1cccc(-c2ccn(-c3cc(N4CCOCC4)c4sc(CN5CCOCC5)cc4n3)n2)c1` (centres unmarked) [Ex. 193, 1-(3-(1-(7-Morpholino-2-(morpholinomethyl)thieno[3,2-b]pyridin-5-yl)-1H-pyrazol-3-yl)phenyl)ethan-1-ol], the inhibition at 0.005 µM in [7] amounted to 22%.

In data set [5], `CCC(CC)COC(=O)[C@H](C)N[P@](=O)(OC[C@H]1O[C@@](C#N)(c2ccc3c(N)ncnn23)[C@H](O)[C@@H]1O)Oc1ccccc1` [remdesivir, reference compound] displayed an EC50 of 5.6 µM. The same compound came in with a CC50 in [10] greater than 100 µM.

On to `NC(=O)c1ncn([C@@H]2O[C@H](CO)[C@@H](O)[C@H]2O)n1` [ribavirin, reference compound], for which the EC50 in data set [6] is 3.8 µM. For the same compound, the CC50 in data set [10] is greater than 1000 µM.
